# Counter-ions that a name gives are not always drawn. Like-named read-outs stand apart in the source and are kept apart here.
# What was measured:
# [1] = system: carrageenin-induced pleural exudate; PMN cell migration; settings: oral, cited from earlier work; for migration of cells into the pleural cavity: PMN cells vs monocytes, thought in 1975
# hyperalgesia = assay: animal or person; settings: for inhibitory effect on hyperalgesia: 25 to 750 mmoles/kg
# Source text: In order to predict the therapeutic effect of the racemates in men, it is necessary to know how much the single enantiomers contribute to the global activity, using experimental models excluding metabolic bio-conversion. […] This model allows the contemporary evaluation of the inhibition of oedema formation and of hyperalgesia.
# [2] = gastric ulcer-inducing properties in rats (ulcer score); format: in vivo; settings: rat; for ulcer score: 40 mmoles/kg
# Source text: Guinea-pigs are a species naturally resistant to the gastrolesive action of NSAIDs, so that it is not possible to compare the two enantiomers in respect to this parameter in this species, unless using very high doses, having no predictive value. To this purpose, rats are necessarily, again, the chosen species, although the least suitable. […] The differences among the enantiomers and the racemate were statistically significant starting from the dose of […]: at this dose an "ulcer score" of 2 was evaluated for the (R) enantiomer, compared with "ulcer scores" of 3 and 4 for the racemate and the (S) enantiomer, respectively.
# [3] = system: mouse peritoneal macrophages; assay: lipopolysaccharide-stimulated IL-1b release from mouse peritoneal macrophages; format: cell-based; settings: for minimal effective concentration: Mus musculus, Peritoneal macrophage, read-out: concentration of statistically significant stimulation of IL-1b formation
# oedema formation [4] = settings: for inhibition of oedema formation: 25 to 750 mmoles/kg
# TXB2 synthesis = TXB2 synthesis inhibition in human blood; format: cell-based; settings: index of platelet antiaggregating properties
# [5] = system: ultra-violet radiation-induced epidermal erythema; settings: topic; guinea pigs; cited from earlier work
# [6] = system: interleukin IL-8 production; settings: reduced from 53.8 pg/ml, p<0.1, cited from earlier work
# [7] = guinea-pigs; cited from earlier work
# pain perception = settings: men; compared with (S) enantiomers; cited from earlier work
# [8] = men, cited from earlier work
# [9] = rats; in words; cited from earlier work
# human PMN leukocytes = assay: [Ca^++ ]i increase induced by IL-8 in human PMN leukocytes; format: cell-based; settings: IL-8 50 ng/ml, % of basal [Ca^++ ]i (basal 100%), no drug 302 ± 11
# Protocol: The results reported in Table 1 are cumulative data obtained from 8 trials (8 donors who gave their explicit consent, 3 to 7 cells per specimen). […] The responses, expressed as percent of basal value of [Ca^++ ]i, are the mean from all responsive cells; standard error of the mean (±SEM) and number of replications (in brackets) are also reported. […] IL-8 concentration was 50 ng/ml.
# [10] = system: Ca^++ channels, human PMN neutrophils; assay: competition study with lanthanum ions: [Ca^++ ]i increase induced by IL-8, role of Ca^++ channels; format: cell-based; settings: ketoprofen L-lysine salt 10^-8 M; La^+++ 10 μM; IL-8 50 ng/ml; % of basal (100%)
# Protocol: Results reported in Table 2 are the cumulative values from 3 trials (3 donors, 3-7 cells per specimen). […] Responses are expressed as percent of basal [Ca^++ ]i value and are the mean from the values of all responsive cells. Standard error of the mean (SEM) and number of replications (in brackets) are also reported. […] The concentration of ketoprofen L-lysine salt was 10^-8 M, that of La^+++ 10 μM, and that of IL-8 50 ng/ml.
# human PMN neutrophils [11] = assay: [Ca^++ ]i increase induced by FMLP in human PMN neutrophils; format: cell-based; settings: FLMP 10^-7 M; % of basal (100%); no treatment 208 ± 7
# Source text: (§1) Results are expressed as percent of the basal value of [Ca^++ ]i and are the mean from the values of all responsive cells. Standard error of the mean (SEM) and number of replications (n, in brackets) are also reported.
# human PMN neutrophils [12] = assay: [Ca^++ ]i increase induced by C5a in human PMN neutrophils; format: cell-based; settings: for C5a [Ca^++ ]i (% ± SEM): C5a 10^-8 M, % of basal (100%), no treatment 198 ± 10; for percent of non responsive cells: C5a stimulation and treatment with the L-lysine salts
# Source text: as §1
# human PMN neutrophils [13] = assay: IL-8-stimulated human PMN neutrophil degranulation (elastase release), FIG. 1; format: cell-based; settings: IL-8 50 ng/ml, cytoclasin B 10^-5 M, 30 min 37° C; FIG. 1, ** p<0.05 against IL-8
# Protocol: Human PMN neutrophils (10^7 /ml) were stimulated in the presence of cytoclasin B (10^-5 M) by adding IL-8 (50 ng/ml) and incubating them for 30 min at 37° C. La^+++ was added 5 min before IL-8 and the lysine salts of (R)- and (S)-ketoprofen 15 min before IL-8. Degranulation was evaluated based on the amount of elastase released in the cell-free surnatant and is expressed as DOD×10^3 /min.
# [14] = system: mouse peritoneal macrophages; assay: lipopolysaccharide-stimulated TNF-a release from mouse peritoneal macrophages; format: cell-based; settings: LPS-stimulated; 10^-9 -10^-5 M
# Neutrophils = settings: 10^-6 M, 10 min 37° C; FIG. 2, ** p<0.01
# Source text: Results are expressed as the mean ±SD from 3 separated trials (** p<0.01 against each group).
# oedema formation [15] = assay: animal or person; settings: Cavia porcellus, read-out: dose from which oedema inhibition is statistically significant
# PMN neutrophils = settings: FLMP-stimulated vs other agonist-stimulated; cited from earlier work
# MCP-1 and IL-8 release = settings: comparative study; cited from earlier work
# neutrophil = settings: Ca^++ ionophore and FLMP; cited from earlier work
# human synovial cells = settings: stimulated by interleukin-1 and TNF-a; cited from earlier work
compound,measurement,setting,value
"CC(C(=O)O)c1ccc(-c2ccccc2)c(F)c1 (racemic) [flurbiprofen, 3-fluoro-4-phenylhydratropic acid]",migration of cells into the pleural cavity,[1],"inhibit the migration of PMN cells, but not that of monocytes"
same,carrageenin-induced formation of pleural exudate,[1],inhibited
CC(C(=O)O)c1cccc(C(=O)c2ccccc2)c1 (racemic) [racemic ketoprofen L-lysine salt],inhibitory effect on hyperalgesia,hyperalgesia,constantly intermediate between those evaluated for the two enantiomers
same,ulcer score,[2],3
same,minimal effective concentration,[3],10 µM
same,inhibition of oedema formation,oedema formation [4],constantly intermediate between those evaluated for the two enantiomers
CC(C(=O)O)c1cccc(C(=O)c2ccccc2)c1 (racemic) [racemic ketoprofen],IC50,TXB2 synthesis,420 ± 40 µM
same,"Protection, UV radiation-induced epidermal erythema",[5],56.1±3.1%
same,interleukin IL-8 production,[6]; 100 mg/kg,16.9 pg/mL
same,interleukin IL-8 production,[6]; 200 mg/kg,22.4 pg/mL
"C[C@@H](C(=O)O)c1ccc(-c2ccccc2)c(F)c1 [(R)-flurbiprofen, 3-fluoro-4-phenylhydratropic acid]",conversion of (R) into (S) enantiomer,[7],< 5%
same,inhibition of pain perception,pain perception,efficacy at least similar to that of the (S) enantiomers
same,conversion of (R) into (S) enantiomer,[8],< 5%
same,conversion of (R) into (S) enantiomer,[9],completely converted
"CC(C)Cc1ccc([C@@H](C)C(=O)O)cc1 [(R)-ibuprofen, p-isobutylhydratropic acid]",conversion of (R) into (S) enantiomer,[8]; in words,nearly completely converted
same,conversion of (R) into (S) enantiomer,[9],nearly completely converted
"C[C@@H](C(=O)O)c1cccc(C(=O)c2ccccc2)c1 [(R)-ketoprofen L-lysine salt, (R)-2-(3-benzoylphenyl)propionic acid]",[Ca^++ ]i (% ± SEM),human PMN leukocytes; drug 10^-6 M,182 ± 15%
same,[Ca^++ ]i (% ± SEM),human PMN leukocytes; drug 10^-7 M,193 ± 10%
same,[Ca^++ ]i (% ± SEM),human PMN leukocytes; drug 10^-8 M,188 ± 8%
same,[Ca^++ ]i (% ± SEM),human PMN leukocytes; drug 10^-9 M,364 ± 29%
same,La^+++ + IL-8 [Ca^++ ]i (% ± SEM),[10],176 ± 7%
same,FMLP [Ca^++ ]i (% ± SEM),human PMN neutrophils [11],193 ± 6%
same,C5a [Ca^++ ]i (% ± SEM),human PMN neutrophils [12],153 ± 4%
same,percent of non responsive cells,human PMN neutrophils [12],50%
same,inhibitory effect on human PMN neutrophil degranulation (elastase release),human PMN neutrophils [13],specific inhibitory effects
same,inhibitory effect on hyperalgesia,hyperalgesia,"marked, dose-dependent inhibitory effect on hyperalgesia"
same,"doses with marked, dose-dependent inhibition of hyperalgesia",hyperalgesia; maximal at the highest dose,75 to 250 mmol/kg
same,ulcer score,[2],2
same,ulcer-inducing properties,[2]; compared with (S) enantiomer,less ulcer-inducing properties
same,effect on TNF-a release,[14],completely ineffective
same,effect on IL-1b release,"[3]; LPS-stimulated, 10^-9 -10^-5 M",completely ineffective
same,inhibitory effect on IL-8-stimulated chemotactic migration,Neutrophils,specific inhibitory effects
same,inhibition of oedema formation,oedema formation [4],significantly inhibited oedema formation
same,minimal effective dose,oedema formation [15],250000 µmol/kg
C[C@H](C(=O)O)c1cccc(C(=O)c2ccccc2)c1 [(S)-ketoprofen L-lysine salt],[Ca^++ ]i (% ± SEM),human PMN leukocytes; drug 10^-6 M,163 ± 18%
same,[Ca^++ ]i (% ± SEM),human PMN leukocytes; drug 10^-7 M,199 ± 13%
same,[Ca^++ ]i (% ± SEM),human PMN leukocytes; drug 10^-8 M,183 ± 5%
same,[Ca^++ ]i (% ± SEM),human PMN leukocytes; drug 10^-9 M,289 ± 19%
same,La^+++ + IL-8 [Ca^++ ]i (% ± SEM),[10],166 ± 7%
same,FMLP [Ca^++ ]i (% ± SEM),human PMN neutrophils [11],214 ± 13%
same,C5a [Ca^++ ]i (% ± SEM),human PMN neutrophils [12],150 ± 4%
same,percent of non responsive cells,human PMN neutrophils [12],50%
same,inhibitory effect on human PMN neutrophil degranulation (elastase release),human PMN neutrophils [13],specific inhibitory effects
same,inhibitory effect on hyperalgesia,hyperalgesia,only a slight inhibitory effect on hyperalgesia
same,minimal effective dose,"hyperalgesia; Cavia porcellus, read-out: dose with statistically significant inhibition of hyperalgesia",750000 µmol/kg
same,ulcer score,[2],4
same,minimal effective concentration,[3],10 µM
same,inhibitory effect on IL-8-stimulated chemotactic migration,Neutrophils,specific inhibitory effects
same,dose of maximal effect on oedema formation,oedema formation [4]; dose range 25 to 750 mmoles/kg,250 mmol/kg
same,minimal effective dose,oedema formation [15],75000 µmol/kg
C[C@H](C(=O)O)c1cccc(C(=O)c2ccccc2)c1 [(S)-ketoprofen],IC50,TXB2 synthesis,160 ± 40 µM
same,"Protection, UV radiation-induced epidermal erythema",[5],73.4±4.0%
"CC(C)C[C@H](NC(=O)OCC1c2ccccc2-c2ccccc21)C(=O)O [NPC-15669, N-Fmoc-L-leucine]",[Ca^++ ]i increase in PMN neutrophils,PMN neutrophils,"inhibited FLMP-stimulated, but not other agonist-stimulated [Ca^++ ]i increase"
C[C@@H]1C[C@H]2[C@@H]3CCC4=CC(=O)C=C[C@]4(C)[C@@]3(F)[C@@H](O)C[C@]2(C)[C@@]1(O)C(=O)CO [dexamethasone],inhibition of release of MCP-1 and IL-8,MCP-1 and IL-8 release,in an optimal manner
CC(C(=O)O)c1cccc(Oc2ccccc2)c1 (stereo not drawn) [fenofren],migration of cells into the pleural cavity,[1],"inhibit the migration of PMN cells, but not that of monocytes"
same,carrageenin-induced formation of pleural exudate,[1],inhibited
O=C(O)c1ccccc1Nc1cccc(C(F)(F)F)c1 [flufenamic acid],inhibition of neutrophil activation / blockade of Ca^++ ion entry,neutrophil,inhibition of neutrophil activation
COc1ccc2c(c1)c(CC(=O)O)c(C)n2C(=O)c1ccc(Cl)cc1 [indomethacin],migration of cells into the pleural cavity,[1],"inhibit the migration of PMN cells, but not that of monocytes"
same,carrageenin-induced formation of pleural exudate,[1],inhibited
same,IL-8 production in human synovial cells,human synovial cells,not inhibited
CN(Cc1cnc2nc(N)nc(N)c2n1)c1ccc(C(=O)N[C@@H](CCC(=O)O)C(=O)O)cc1 [metotrexate],inhibition of release of MCP-1 and IL-8,MCP-1 and IL-8 release,in a sub-optimal manner
COc1ccc2cc([C@H](C)C(=O)O)ccc2c1 [naproxen],IL-8 production in human synovial cells,human synovial cells,not inhibited
COC(=O)C1=C(C)NC(C)=C(C(=O)OC)C1c1ccccc1[N+](=O)[O-] [nifedipine],inhibition of neutrophil activation / blockade of Ca^++ ion entry,neutrophil,completely inactive
CN1C(C(=O)Nc2ccccn2)=C(O)c2ccccc2S1(=O)=O [piroxicam],IL-8 production in human synovial cells,human synovial cells,not inhibited
O=C([O-])CC(S)C(=O)[O-].[Na+].[Na+] (stereo not drawn) [sodium thiomalate],inhibition of release of MCP-1 and IL-8,MCP-1 and IL-8 release,in a sub-optimal manner
CN1C(C(=O)Nc2nccs2)=C(O)c2ccccc2S1(=O)=O [sudoxicam],migration of cells into the pleural cavity,[1],"inhibit the migration of PMN cells, but not that of monocytes"
same,carrageenin-induced formation of pleural exudate,[1],inhibited
CC(C(=O)O)c1ccc(C(=O)c2ccccc2)s1 (stereo not drawn) [thioprofenic acid],IL-8 production in human synovial cells,human synovial cells,not inhibited
Cc1c(Cl)cccc1Nc1ccccc1C(=O)O [tolfenamic acid],inhibition of neutrophil activation / blockade of Ca^++ ion entry,neutrophil,inhibition of neutrophil activation
